Assay results: US8993604B2, “Treatment and prevention of dengue virus infections” (Siga Technologies, Inc., priority 2009, dated 2015)
Read-outs that look alike come from different tables or passages of the source.

Assays:
[1] = system: Dengue-2 (Strain New Guinea C); test: Viral yield assay in Vero cells; type: cell-based; conditions: Dengue virus, read-out: Activity (anti-dengue 2 viral activity, EC50 class)
Method: Compounds that were active in the primary screen were tested for activity in viral yield assays. […] Vero cells in 12-well plates were infected with dengue-2 virus at a multiplicity of infection (MOI) of 0.1, treated with compound (or DMSO as a control), incubated at 37° C., harvested 48 hours post infection and titered on Vero cells as described above. The EC50 was calculated through ExcelFit. Activities against other serotypes of dengue virus were determined in a similar way.

[2] = system: all four serotypes of dengue; test: Yield assays against each of the four serotypes of dengue; type: cell-based, dengue virus; conditions: yield assays at several drug concentrations
Method: Initially, the chemical structures of the hit compounds were examined for chemical tractability. […] Hits that passed this medicinal chemistry filter were evaluated for their potency. Compound potency was determined by evaluating inhibitory activity across a broad range of concentrations. Nonlinear regression was used to generate best-fit inhibition curves and to calculate the 50% effective concentration (EC50). The selectivity or specificity of a given compound is typically expressed as a ratio of its cytotoxicity to its biological effect. A cell proliferation assay is used to calculate a 50% cytotoxicity concentration (CC50); the ratio of this value to the EC50 is referred to as the therapeutic index (T.I.=CC50/EC50). Two types of assays have been used to determine cytotoxicity, both of which are standard methods for quantitating the reductase activity produced in metabolically active cells (22). […] Verification that these compounds act against each of the four serotypes of dengue was done with yield assays carried out at several drug concentrations, and the titer determined for each.
Compounds that were active in the primary screen were tested for activity in viral yield assays. […] The EC50 was calculated through ExcelFit. Activities against other serotypes of dengue virus were determined in a similar way.

dengue [3] = conditions: mouse model; cited from earlier work
dengue [4] = conditions: cited from earlier work
[5] = Vero cells, MOI 0.1, harvested 48 hours post infection

Row | Structure (SMILES) | EC50 [1, 5] [µM] | further results
1 | COc1ccc(C(=O)Nc2ccc(-c3nc4ccc(C)cc4s3)cc2)c(OC)c1 [Compound 3, 2,4-Dimethoxy-N-[4-(6-methyl-benzothiazol-2-yl)-phenyl]-benzamide] | < 1 | activity against all four serotypes of dengue [2]: activity against all four serotypes of dengue
2 | Cc1ccc(C(=O)Nc2ccccc2-c2nc3ccccc3s2)cc1C [Compound 99, N-(2-Benzothiazol-2-yl-phenyl)-3,4-dimethyl-benzamide] | > 25 | –
3 | COc1c(Cl)cc(Cl)cc1C(=O)Nc1ccccc1-c1nc2ccccc2s1 [Compound 100, N-(2-Benzothiazol-2-yl-phenyl)-3,5-dichloro-2-methoxy-benzamide] | > 25 | –
4 | CCC(C)Oc1ccc(C(=O)Nc2ccccc2-c2nc3ccccc3s2)cc1 (stereo not drawn) [Compound 101, N-(2-Benzothiazol-2-yl-phenyl)-4-sec-butoxy-benzamide] | > 25 | –
5 | O=C(Nc1ccccc1-c1nc2ccccc2s1)c1cc(Br)ccc1Cl [Compound 102, N-(2-Benzothiazol-2-yl-phenyl)-5-bromo-2-chloro-benzamide] | > 25 | –
6 | O=C(Nc1ccccc1-c1nc2ccccc2s1)c1cccc(I)c1 [Compound 103, N-(2-Benzothiazol-2-yl-phenyl)-3-iodo-benzamide] | > 25 | –
7 | COc1cc(OC)cc(C(=O)Nc2ccccc2-c2nc3ccccc3s2)c1 [Compound 104, N-(2-Benzothiazol-2-yl-phenyl)-3,5-dimethoxy-benzamide] | > 25 | –
8 | O=C(Nc1ccccc1-c1nc2ccccc2s1)c1ccc(-c2ccccc2)cc1 [Compound 105, Biphenyl-4-carboxylic acid (2-benzothiazol-2-yl-phenyl)-amide] | > 25 | –
9 | CCCCOc1cccc(C(=O)Nc2ccccc2-c2nc3ccccc3s2)c1 [Compound 106, N-(2-Benzothiazol-2-yl-phenyl)-3-butoxy-benzamide] | > 25 | –
10 | Cc1ccc(C(=O)Nc2ccccc2-c2nc3ccccc3s2)cc1[N+](=O)[O-] [Compound 107, N-(2-Benzothiazol-2-yl-phenyl)-4-methyl-3-nitro-benzamide] | > 25 | –
11 | COc1c(Cl)cc(C(=O)Nc2ccccc2-c2nc3ccccc3s2)cc1Cl [Compound 108, N-(2-Benzothiazol-2-yl-phenyl)-3,5-dichloro-4-methoxy-benzamide] | > 25 | –
12 | O=C(Nc1ccccc1-c1nc2ccccc2s1)c1cccc2c(Cl)cccc12 [Compound 109, 5-Chloro-naphthalene-1-carboxylic acid (2-benzothiazol-2-yl-phenyl)-amide] | > 25 | –
13 | O=C(Nc1ccccc1-c1nc2ccccc2s1)c1cccc(F)c1 [Compound 110, N-(2-Benzothiazol-2-yl-phenyl)-3-fluoro-benzamide] | > 25 | –
14 | O=C(Nc1ccccc1-c1nc2ccccc2s1)c1cccc(OCc2ccccc2)c1 [Compound 111, N-(2-Benzothiazol-2-yl-phenyl)-3-benzyloxy-benzamide] | > 25 | –
15 | COc1ccccc1C(=O)Nc1ccccc1-c1nc2ccccc2s1 [Compound 112, N-(2-Benzothiazol-2-yl-phenyl)-2-methoxy-benzamide] | > 25 | –
16 | COc1ccc(C(=O)Nc2ccccc2-c2nc3ccccc3s2)cc1[N+](=O)[O-] [Compound 113, N-(2-Benzothiazol-2-yl-phenyl)-4-methoxy-3-nitro-benzamide] | > 25 | –
17 | Cc1c(C(=O)Nc2ccccc2-c2nc3ccccc3s2)cccc1[N+](=O)[O-] [Compound 114, N-(2-Benzothiazol-2-yl-phenyl)-2-methyl-3-nitro-benzamide] | > 25 | –
18 | Cc1cc(C(=O)Nc2ccccc2-c2nc3ccccc3s2)ccc1[N+](=O)[O-] [Compound 115, N-(2-Benzothiazol-2-yl-phenyl)-3-methyl-4-nitro-benzamide] | > 25 | –
19 | O=C(Nc1ccccc1-c1nc2ccccc2s1)c1ccccc1Br [Compound 116, N-(2-Benzothiazol-2-yl-phenyl)-2-bromo-benzamide] | > 25 | –
20 | Cc1ccc(C(=O)Nc2cc(-c3nc4ccccc4s3)ccc2C)c(C)c1 [Compound 117, N-(5-Benzothiazol-2-yl-2-methyl-phenyl)-2,4-dimethyl-benzamide] | > 25 | –
21 | COc1cccc(OC)c1C(=O)Nc1ccc(Cl)c(-c2nc3ccccc3s2)c1 [Compound 118, N-(3-Benzothiazol-2-yl-4-chloro-phenyl)-2,6-dimethoxy-benzamide] | > 25 | –
22 | Cc1cc(C(=O)Nc2ccc(-c3nc4ccccc4s3)c(Cl)c2)ccc1[N+](=O)[O-] [Compound 119, N-(4-Benzothiazol-2-yl-3-chloro-phenyl)-3-methyl-4-nitro-benzamide] | > 25 | –
23 | O=C(Nc1ccc(-c2nc3ccccc3s2)c(Cl)c1)c1cccc([N+](=O)[O-])c1 [Compound 120, N-(4-Benzothiazol-2-yl-3-chloro-phenyl)-3-nitro-benzamide] | > 25 | –
24 | Cc1ccc(-c2nc3ccccc3s2)cc1NC(=O)c1ccc2c(c1)OCO2 [Compound 121, Benzo[1,3]dioxole-5-carboxylic acid (5-benzothiazol-2-yl-2-methyl-phenyl)-amide] | – | EC50 ([1]; Vero, 48 h): > 25 µM
25 | Cc1cc(C)cc(C(=O)Nc2cc(-c3nc4ccccc4s3)ccc2Cl)c1 [Compound 122, N-(5-Benzothiazol-2-yl-2-chloro-phenyl)-3,5-dimethyl-benzamide] | > 25 | –
26 | O=C(Nc1ccc(-c2nc3ccccc3s2)c(Cl)c1)c1ccc(F)cc1 [Compound 123, N-(4-Benzothiazol-2-yl-3-chloro-phenyl)-4-fluoro-benzamide] | > 25 | –
27 | O=C(Nc1ccc(-c2nc3ccccc3s2)c(Cl)c1)c1ccccc1[N+](=O)[O-] [Compound 124, N-(4-Benzothiazol-2-yl-3-chloro-phenyl)-2-nitro-benzamide] | > 25 | –
28 | Cc1c(NC(=O)c2cc(-n3cnnc3)ccc2Cl)cccc1-c1nc2ccccc2s1 [Compound 125, N-(3-Benzothiazol-2-yl-2-methyl-phenyl)-2-chloro-5-[1,2,4]triazol-4-yl-benzamide] | – | EC50 ([1]; Vero, 48 h): > 25 µM
29 | Cc1ccc2nc(-c3ccc(NC(=O)c4ccccc4C(=O)O)cc3)sc2c1 [Compound 126, N-[4-(6-Methyl-benzothiazol-2-yl)-phenyl]-phthalamic acid] | – | EC50 ([1]; Vero, 48 h): > 25 µM
30 | NC(=O)c1ncn([C@@H]2O[C@H](CO)[C@@H](O)[C@H]2O)n1 [ribavirin] | – | protection against dengue (dengue [3]): did not show protection; adverse effects induced (dengue [4]; animal models of refs. 14, 16, model not specified): induced anemia and thrombocytosis; protection against dengue (dengue [4]; rhesus monkey model): did not show protection
